Our source for the IC50 values is patent US11866430B2, “Naphthyridinone compounds useful as T cell activators” (priority 2018, dated 2024).

Test [1] has as its system Jurkat AP1-luciferase Reporter. The test can be described thus: DGK AP1-Reporter Assay. Conditions: Homo sapiens, Jurkat, read-out: API-Luciferase Reporter IC50, Table 3. The test is classed as cell-based. The protocol:
The Jurkat AP1-luciferase Reporter was generated using the Cignal Lenti AP1 Reporter (luc) Kit from SABiosciences (CLS-011L).
The sample size was 30 nl per well; and one destination plate per source plate. The cell suspensions were prepared by transferring 40 mL cells (2×20 mL) to clean 50 mL conical tubes. The cells were concentrated by centrifugation (1200 rpm; 5 mins; ambient temperature). […] The cell plates were incubated for 20 minutes at 37° C., and 5% CO2.
During the incubation, anti-CD3 antibody (αCD3) solutions were prepared by mixing 3 μl αCD3 (1.3 mg/mL) with 10 mL medium [final conc=0.4 μg/mL]. Next, 1.5 μl αCD3 (1.3 mg/mL) was mixed with 0.5 mL medium [final conc=4 μg/mL]. After 20 minutes, 10 μl medium was added to all wells in column 1, wells A to M, and 10 μl αCD3 (4 μg/mL) per well was added in column 1, rows N to P for reference. Then using a multi-channel pipette, 10 μl αCD3 (0.4 μg/mL) per well was added. The αCD3 stimulated +/− compound-treated cells were incubated at 37° C., 5% CO2 for 6 hours.
During this incubation period. Steady-Glo (Promega E2520) reagent was slowly thawed on to ambient temperature. Next, 20 μl Steady-Glo reagent per well was added using a multi-drop Combi-dispenser. Bubbles were removed by centrifugation (2000 rpm, ambient temperature, 10 sees). The cells were incubated at room temperature for 5 minutes. Samples were characterized by measuring the Relative Light Units (RLU) with an using Envision Plate Reader Instrument on a luminescence protocol.

Test [2] addresses T1, human DGKζ (Homo sapiens (Human), UniProt Q13574). Description: DGKζ assay (detergent/lipid micelle substrate). The test is classed as biochemical. Conditions: detergent/lipid micelle substrate; read-out: DGKζ IC50. The essentials: (§1)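 Enzymes were baculovirus/Sf9 full-length human DGKα or DGKζ with His tag. The substrate was PS/DAG in octyl glucoside micelles, in MOPS pH 7.5 buffer with NaCl, MgCl2, CaCl2 and DTT.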

Test [3] deals with pre-activated CD4 T cells and Raji cells. Description: Raji CD4 T Cell IL2 Assay. It is filed as cell-based. The following applies: Homo sapiens, Raji.
The target of test [4] is T2, human DGKα (Homo sapiens (Human), UniProt P23743). The test can be described thus: biochemical. Conditions: detergent/lipid micelle substrate; read-out: DGKα IC50. The essentials:
as §1

The target in test [5] is T1, human DGKζ. Description: DGKζ LIPGLO assay (extruded liposome substrate). It is filed as biochemical. The following applies: extruded liposome substrate; read-out: DGKζ LIPGLO IC50. The essentials: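 Sf9-derived DGKζ was premixed 10 min with PC/DAG/PS liposomes (100 nm extruded) in MOPS pH 7.5 buffer containing NaCl, MgCl2, CaCl2 and DTT.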
Test [6] deals with T2, human DGKα. Description: DGKα LIPGLO assay (extruded liposome substrate). It is filed as biochemical. The essentials: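 Human full-length DGKα, His-tagged and produced in Sf9 cells, assayed at 20 nM (4× stock) on extruded liposomes of PS, 0.25 mM DAG and 2.75 mM PC, preincubated 10 min. Reaction started with 300 μM ATP (stock) and ran 1 h in MOPS pH 7.5/MgCl2/CaCl2/DTT buffer.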

T1 sequence (Q13574 other isoform, or with tags, fused parts or gaps): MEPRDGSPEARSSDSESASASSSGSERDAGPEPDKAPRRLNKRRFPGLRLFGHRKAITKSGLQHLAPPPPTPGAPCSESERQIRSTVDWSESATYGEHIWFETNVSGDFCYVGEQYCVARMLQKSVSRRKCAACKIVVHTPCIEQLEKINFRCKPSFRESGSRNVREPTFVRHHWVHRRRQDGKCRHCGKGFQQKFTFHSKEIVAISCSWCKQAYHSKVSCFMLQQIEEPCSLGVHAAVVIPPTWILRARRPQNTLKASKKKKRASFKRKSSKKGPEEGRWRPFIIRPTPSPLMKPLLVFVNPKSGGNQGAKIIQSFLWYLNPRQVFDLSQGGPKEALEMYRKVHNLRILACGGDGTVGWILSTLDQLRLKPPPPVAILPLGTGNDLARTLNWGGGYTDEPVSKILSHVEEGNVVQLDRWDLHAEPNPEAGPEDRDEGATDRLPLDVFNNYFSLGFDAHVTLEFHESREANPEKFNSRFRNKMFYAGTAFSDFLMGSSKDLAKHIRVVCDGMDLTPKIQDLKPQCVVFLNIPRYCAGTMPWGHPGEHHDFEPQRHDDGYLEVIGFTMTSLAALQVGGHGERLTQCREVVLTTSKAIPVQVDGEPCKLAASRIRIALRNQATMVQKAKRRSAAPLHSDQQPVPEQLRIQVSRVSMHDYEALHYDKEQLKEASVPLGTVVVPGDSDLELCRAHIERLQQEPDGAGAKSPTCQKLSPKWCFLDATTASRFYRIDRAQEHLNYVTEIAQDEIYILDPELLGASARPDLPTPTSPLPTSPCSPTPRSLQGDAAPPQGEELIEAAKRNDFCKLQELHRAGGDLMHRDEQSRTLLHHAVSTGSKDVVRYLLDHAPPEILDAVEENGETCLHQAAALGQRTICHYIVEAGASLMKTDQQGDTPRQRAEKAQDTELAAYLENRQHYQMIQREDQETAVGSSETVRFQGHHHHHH
T2 sequence (P23743 other isoform, or with tags, fused parts or gaps): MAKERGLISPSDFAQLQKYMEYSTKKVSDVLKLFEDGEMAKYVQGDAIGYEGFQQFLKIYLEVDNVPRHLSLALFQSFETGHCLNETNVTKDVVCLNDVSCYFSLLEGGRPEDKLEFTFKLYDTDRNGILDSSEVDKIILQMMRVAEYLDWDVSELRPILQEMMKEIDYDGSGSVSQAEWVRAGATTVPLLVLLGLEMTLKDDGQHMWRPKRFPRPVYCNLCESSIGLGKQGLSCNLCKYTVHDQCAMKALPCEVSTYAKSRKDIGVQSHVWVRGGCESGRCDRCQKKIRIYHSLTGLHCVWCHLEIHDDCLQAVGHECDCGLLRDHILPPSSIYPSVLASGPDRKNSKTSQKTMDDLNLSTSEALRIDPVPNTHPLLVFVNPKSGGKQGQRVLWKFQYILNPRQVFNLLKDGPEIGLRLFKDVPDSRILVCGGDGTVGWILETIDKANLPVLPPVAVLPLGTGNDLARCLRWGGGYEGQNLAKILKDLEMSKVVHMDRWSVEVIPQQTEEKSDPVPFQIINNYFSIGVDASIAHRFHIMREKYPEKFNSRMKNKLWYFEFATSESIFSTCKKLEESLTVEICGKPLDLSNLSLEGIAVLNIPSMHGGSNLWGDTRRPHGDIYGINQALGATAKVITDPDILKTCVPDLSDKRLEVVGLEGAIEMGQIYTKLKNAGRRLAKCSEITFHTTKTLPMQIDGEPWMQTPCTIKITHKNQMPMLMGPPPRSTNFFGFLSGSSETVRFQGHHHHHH

With `COCCn1c(=O)c(C#N)c(N2CCN(C(c3ccc(F)cc3)c3ccc(F)cc3)CC2)c2nc(Br)ccc21` [Example 113, 4-(4-(bis(4-fluorophenyl)methyl)piperazin-1-yl)-6-bromo-1-(2-methoxyethyl)-2-oxo-1,2-dihydro-1,5-naphthyridine-3-carbonitrile], the IC50 in test [1] was found to be 0.58 µM.

As to `COc1ccc(O)c(CN2CCN(c3c(C#N)c(=O)n(C)c4ccc(Cl)nc34)CC2)c1` [Example 305, 6-chloro-4-{4-[(2-hydroxy-5-methoxyphenyl)methyl]piperazin-1-yl}-1-methyl-2-oxo-1,2-dihydro-1,5-naphthyridine-3-carbonitrile], the IC50 was 62 µM in test [2]; 0.21 µM in test [3]; 0.13 µM in test [4]; 7.5 µM in test [5]; 0.49 µM in test [6].

Take `Cn1c(=O)c(C#N)c(N2CCN(Cc3cc(F)ccc3O)CC2)c2nc(Cl)ccc21` [Example 312, 6-chloro-4-{4-[(5-fluoro-2-hydroxyphenyl)methyl]piperazin-1-yl}-1-methyl-2-oxo-1,2-dihydro-1,5-naphthyridine-3-carbonitrile]: the IC50 in test [2] was greater than 240 µM; in test [3], 0.24 µM; in test [4] it was 0.12 µM; in test [5], 16 µM; in test [6], 0.22 µM.

For the molecule `Cn1c(=O)c(C#N)c(N2CCN(Cc3cc(F)cc(C(F)(F)F)c3)CC2)c2nc(Cl)ccc21` [Example 313, 6-chloro-4-(4-{[3-fluoro-5-(trifluoromethyl)phenyl]methyl}piperazin-1-yl)-1-methyl-2-oxo-1,2-dihydro-1,5-naphthyridine-3-carbonitrile], the IC50 in test [2] was greater than 81 µM; in test [3] it was 0.25 µM; in test [4] it was 1.5 µM; in test [5], 62 µM; in test [6], 17 µM.

Turning to `Cn1c(=O)c(C#N)c(N2CCN(Cc3cccc(F)c3)CC2)c2nc(Cl)ccc21` [Example 321, 6-chloro-4-{4-[(3-fluorophenyl)methyl]piperazin-1-yl}-1-methyl-2-oxo-1,2-dihydro-1,5-naphthyridine-3-carbonitrile], the IC50 in test [2] is greater than 240 µM; in test [3], 0.31 µM; in test [4], 0.16 µM; in test [5], 12 µM; in test [6] it was 0.34 µM.

Regarding `Cn1c(=O)c(C#N)c(N2CCN(Cc3ccc(Cl)c(O)c3)CC2)c2nc(Cl)ccc21` [Example 323, 6-chloro-4-{4-[(4-chloro-3-hydroxyphenyl)methyl]piperazin-1-yl}-1-methyl-2-oxo-1,2-dihydro-1,5-naphthyridine-3-carbonitrile], the IC50 in test [2] was determined as 11 µM; in test [3] it was 0.34 µM; in test [4] it was 0.14 µM; in test [5], 27 µM; in test [6], 1.2 µM.

`Cc1ccc2c(n1)c(N1CCN(Cc3cccc(F)c3O)CC1)c(C#N)c(=O)n2C` [Example 329, 4-{4-[(3-fluoro-2-hydroxyphenyl)methyl]piperazin-1-yl}-1,6-dimethyl-2-oxo-1,2-dihydro-1,5-naphthyridine-3-carbonitrile]: the IC50 was 30 µM in test [2]; 0.47 µM in test [3]; 0.56 µM in test [4]; 49 µM in test [5]; 5.6 µM in test [6].

Take `Cn1c(=O)c(C#N)c(N2CCN(Cc3ccc(Cl)c(O)c3)CC2)c2nc(C#N)ccc21` [Example 332, 8-{4-[(4-chloro-3-hydroxyphenyl)methyl]piperazin-1-yl}-5-methyl-6-oxo-5,6-dihydro-1,5-naphthyridine-2,7-dicarbonitrile]: the IC50 in test [2] was determined as 67 µM; in test [3], 0.53 µM; in test [4], 1.1 µM; in test [5], 6.5 µM; in test [6] it was 2.5 µM.

For the molecule `COc1cccc(F)c1CN1CCN(c2c(C#N)c(=O)n(C)c3ccc(Cl)nc23)CC1` [Example 335, 6-chloro-4-{4-[(2-fluor-6-methoxyphenyl)methyl]piperazin-1-yl}-1-methyl-2-oxo-1,2-dihydro-1,5-naphthyridine-3-carbonitrile], the IC50 in test [2] was greater than 240 µM; in test [3], 0.54 µM; in test [4] it was 2.7 µM; in test [5], 18 µM; in test [6] it was 1.9 µM.

On to `Cn1c(=O)c(C#N)c(N2CCN(Cc3cc(O)cc(F)c3)CC2)c2nc(Cl)ccc21` [Example 338, 6-chloro-4-{4-[(3-fluoro-5-hydroxyphenyl)methyl]piperazin-1-yl}-1-methyl-2-oxo-1,2-dihydro-1,5-naphthyridine-3-carbonitrile], for which the half-maximal inhibitory concentration (IC50) in test [2] was greater than 240 µM; in test [3], 0.58 µM; in test [4], 1.1 µM; in test [5], 66 µM; in test [6], 5.1 µM.

In the case of `Cn1c(=O)c(C#N)c(N2CCN(Cc3cc(C#N)ccc3F)CC2)c2nc(Cl)ccc21` [Example 340, 6-chloro-4-{4-[(5-cyano-2-fluoro-phenyl)methyl]piperazin-1-yl}-1-methyl-2-oxo-1,2-dihydro-1,5-naphthyridine-3-carbonitrile], the IC50 in test [2] is greater than 240 µM; in test [3], 0.69 µM; in test [4], 4.2 µM; in test [5], 17 µM; in test [6], 3.4 µM.

As to `Cn1c(=O)c(C#N)c(N2CCN(Cc3ccc(O)c(F)c3)CC2)c2nc(Cl)ccc21` [Example 357, 6-chloro-4-{4-[(3-fluoro-4-hydroxyphenyl)methyl]piperazin-1-yl}-1-methyl-2-oxo-1,2-dihydro-1,5-naphthyridine-3-carbonitrile], the IC50 in test [2] is greater than 240 µM; in test [3], 5 µM; in test [4], 0.028 µM; in test [5], 47 µM; in test [6], 0.085 µM.

Take `Cn1c(=O)c(C#N)c(N2CCN(Cc3cccc4c3NC(=O)C4)CC2)c2nc(Br)ccc21` [Example 374, 6-bromo-1-methyl-2-oxo-4-{4-[(2-oxo-2,3-dihydro-1H-indol-7-yl)methyl]piperazin-1-yl}-1,2-dihydro-1,5-naphthyridine-3-carbonitrile]: the IC50 in test [1] was found to be 7.93 µM.

On to `Cn1c(=O)c(C#N)c(N2CCN(Cc3cccc4c3NC(=O)C4)CC2)c2nc(Cl)ccc21` [Example 376, 6-chloro-1-methyl-2-oxo-4-{4-[(2-oxo-2,3-dihydro-1H-indol-7-yl)methyl]piperazin-1-yl}-1,2-dihydro-1,5-naphthyridine-3-carbonitrile], for which the IC50 in test [1] stood at 10 µM.

With `Cn1c(=O)c(C#N)c(N2CCN(Cc3cccc(C(C)(C)C)c3O)CC2)c2nc(Cl)ccc21` [Example 384, 4-{4-[(3-tert-butyl-2-hydroxyphenyl)methyl]piperazin-1-yl}-6-chloro-1-methyl-2-oxo-1,2-dihydro-1,5-naphthyridine-3-carbonitrile], the IC50 in test [1] amounted to 0.18 µM.

For the molecule `Cc1cccc(Cl)c1CN1CCN(c2c(C#N)c(=O)n(C)c3ccc(Cl)nc23)CC1` [Example 419, 6-chloro-4-{4-[(2-chloro-6-methylphenyl)methyl]piperazin-1-yl}-1-methyl-2-oxo-1,2-dihydro-1,5-naphthyridine-3-carbonitrile], the IC50 was greater than 81 µM in test [2]; 0.29 µM in test [3]; 81 µM in test [4]; 15 µM in test [5]; 49 µM in test [6].
